# Experiments:
# Conditions in all cases: exposure: 6-8 hpf to 5 dpf, scored at 6 dpf
# Danio rerio embryo/larva [1] = assay: max % larvae with pigmentation defects across tested concentrations; higher = more toxic
# Danio rerio embryo/larva [2] = assay: max % larvae with edema across tested concentrations; higher = more toxic; extreme values may be limits of the assay
# Danio rerio embryo/larva [3] = assay: max % larvae with tail defects across tested concentrations; higher = more toxic; extreme values may be limits of the assay
# Danio rerio embryo/larva [4] = assay: max % larvae with blood pooling across tested concentrations; higher = more toxic; extreme values may be limits of the assay
# Danio rerio embryo/larva [5] = assay: max % larvae generally abnormal across tested concentrations; higher = more toxic; extreme values may be limits of the assay
# Danio rerio embryo/larva [6] = assay: max % larvae with spinal defects across tested concentrations; higher = more toxic; extreme values may be limits of the assay
# Danio rerio embryo/larva [7] = assay: max % larvae with abnormal position across tested concentrations; higher = more toxic; extreme values may be limits of the assay
# Danio rerio embryo/larva [8] = assay: max % larvae with craniofacial defects across tested concentrations; higher = more toxic; extreme values may be limits of the assay
# Danio rerio embryo/larva [9] = assay: max % larvae with uninflated swim bladder across tested concentrations; higher = more toxic; extreme values may be limits of the assay
SMILES,max % larvae (Danio rerio embryo/larva [1]),max % larvae (Danio rerio embryo/larva [2]),max % larvae (Danio rerio embryo/larva [3]),max % larvae (Danio rerio embryo/larva [4]),max % larvae generally abnormal across tested concentrations (Danio rerio embryo/larva [5]),max % larvae (Danio rerio embryo/larva [6]),max % larvae (Danio rerio embryo/larva [7]),max % larvae (Danio rerio embryo/larva [8]),max % larvae (Danio rerio embryo/larva [9])
O=C(O)C(F)(F)C(F)(F)C(F)F [4H-Perfluorobutanoic acid] (max tested concentration (log10 uM): 2),0%,0%,0%,0%,0%,0%,0%,0%,0%
O=P(O)(O)OCCC(F)(F)C(F)(F)C(F)(F)C(F)(F)C(F)(F)C(F)(F)F [6:2 Fluorotelomer phosphate monoester] (max tested concentration (log10 uM): 2),0%,0%,0%,0%,0%,0%,0%,0%,0%
O=S(=O)(O)CCC(F)(F)C(F)(F)C(F)(F)C(F)(F)C(F)(F)C(F)(F)C(F)(F)C(F)(F)F [8:2 Fluorotelomer sulfonic acid] (max tested concentration (log10 uM): 2),0%,0%,0%,0%,0%,0%,0%,0%,0%
O=C(O)C(F)(F)C(F)(F)C(F)(F)C(F)(F)C(F)(F)C(F)(F)C(F)F [8H-Perfluorooctanoic acid] (max tested concentration (log10 uM): 2),0%,0%,4.17%,0%,8.33%,0%,0%,0%,16.7%
O=C(O)C(F)(F)C(F)(F)C(F)(F)C(F)(F)C(F)(F)C(F)(F)C(F)(F)C(F)F [9H-Perfluorononanoic acid] (max tested concentration (log10 uM): 2),0%,10.4%,0%,0%,10.4%,0%,2.08%,0%,16.7%
OCC(F)(F)C(F)(F)C(F)(F)C(F)(F)C(F)(F)C(F)(F)C(F)(F)C(F)(F)C(F)(F)C(F)(F)C(F)(F)F [11:1 Fluorotelomer alcohol] (max tested concentration (log10 uM): 1.30103),0%,0%,0%,0%,0%,0%,0%,0%,0%
C=C(C)C(=O)OCCC(F)(F)C(F)(F)C(F)(F)C(F)(F)C(F)(C(F)(F)F)C(F)(F)F [(Perfluoro-5-methylhexyl)ethyl 2-methylprop-2-enoate] (max tested concentration (log10 uM): 2),0%,0%,0%,0%,0%,0%,0%,0%,0%
O=C(CC(=O)C(F)(F)C(F)(F)C(F)(F)F)c1cccs1 [(Perfluorobutyryl)-2-thenoylmethane] (max tested concentration (log10 uM): 0.477121),0%,8.33%,0%,0%,8.33%,0%,0%,8.33%,16.7%
C=C(C)C(=O)OCC(F)(F)C(F)(F)C(F)(F)C(F)(F)C(F)(F)C(F)(F)C(F)(F)F [(Perfluoroheptyl)methyl methacrylate] (max tested concentration (log10 uM): 1.60206),0%,0%,0%,0%,0%,0%,0%,0%,0%
CO[Si](C)(CCC(F)(F)C(F)(F)C(F)(F)C(F)(F)C(F)(F)C(F)(F)F)OC [Dimethoxymethyl((perfluorohexyl)ethyl)silane] (max tested concentration (log10 uM): 1.60206),0%,0%,0%,0%,0%,0%,0%,0%,0%
CCOC(=O)CC(=O)C(F)(F)C(F)(F)F [Ethyl pentafluoropropionyl acetate] (max tested concentration (log10 uM): 2),0%,0%,0%,0%,0%,0%,0%,0%,0%
FC(F)(F)C(F)(F)C(F)(F)CI [Heptafluorobutyl iodide] (max tested concentration (log10 uM): 2),0%,0%,0%,0%,0%,0%,0%,0%,0%
OCC(F)(F)C(F)(F)C(F)(F)CO [Hexafluoroamylene glycol] (max tested concentration (log10 uM): 2),0%,0%,0%,0%,0%,0%,0%,0%,0%
O=C(Cl)C(F)(F)C(F)(F)C(F)(F)C(=O)Cl [Hexafluoroglutaryl chloride] (max tested concentration (log10 uM): 2),0%,0%,0%,0%,0%,0%,0%,0%,0%
COC(=O)C(F)(F)C(F)(F)OC(F)(C(F)(F)F)C(F)(F)OC(F)=C(F)F (centres undefined) [Methyl perfluoro(3-(1-ethenyloxypropan-2-yloxy)propanoate)] (max tested concentration (log10 uM): 1.60206),0%,8.33%,0%,0%,8.33%,0%,4.17%,0%,0%
COC(=O)C(F)(F)C(F)(F)C(F)(F)C(F)(F)C(F)(F)F [Methyl perfluorohexanoate] (max tested concentration (log10 uM): 2),0%,0%,0%,0%,0%,0%,0%,0%,0%

SMILES,max % larvae (Danio rerio embryo/larva [1]),max % larvae (Danio rerio embryo/larva [2]),max % larvae (Danio rerio embryo/larva [3]),max % larvae (Danio rerio embryo/larva [4]),max % larvae generally abnormal across tested concentrations (Danio rerio embryo/larva [5]),max % larvae (Danio rerio embryo/larva [6]),max % larvae (Danio rerio embryo/larva [7]),max % larvae (Danio rerio embryo/larva [8]),max % larvae (Danio rerio embryo/larva [9])
CCN(CCO)S(=O)(=O)C(F)(F)C(F)(F)C(F)(F)C(F)(F)C(F)(F)C(F)(F)C(F)(F)C(F)(F)F [N-Ethyl-N-(2-hydroxyethyl)perfluorooctane sulfonamide] (max tested concentration (log10 uM): 2),0%,8.33%,0%,0%,8.33%,0%,0%,0%,8.33%
CN(C(=O)C(F)(F)C(F)(F)C(F)(F)F)[Si](C)(C)C [N-Methyl-N-trimethylsilylheptafluorobutyramide] (max tested concentration (log10 uM): 2),0%,0%,0%,0%,0%,0%,0%,0%,0%
NC(=O)C(F)(F)C(F)(F)C(F)(F)C(F)(F)F [Nonafluoropentanamide] (max tested concentration (log10 uM): 2),0%,0%,0%,0%,0%,0%,0%,0%,0%
NC(=O)C(F)(F)C(F)(F)C(F)(F)C(F)(F)C(N)=O [Octafluoroadipamide] (max tested concentration (log10 uM): 2),0%,0%,0%,0%,0%,0%,0%,0%,0%
O=C(Cl)C(F)(F)C(F)(F)C(F)(F)C(F)(F)C(F)(F)C(F)(F)C(F)(F)F [Pentadecafluorooctanoyl chloride] (max tested concentration (log10 uM): 2),0%,16.7%,12.5%,16.7%,16.7%,12.5%,12.5%,16.7%,16.7%
NC(=O)C(F)(F)C(F)(F)F [Pentafluoropropionamide] (max tested concentration (log10 uM): 2),0%,0%,0%,0%,0%,0%,0%,0%,0%
O=C(O)C(F)(F)C(F)(F)C(F)(F)OC(F)(F)F [Perfluoro(4-methoxybutanoic acid)] (max tested concentration (log10 uM): 2),0%,0%,0%,0%,0%,0%,0%,0%,0%
FC(F)(F)C(F)(F)C(F)(F)C(F)(F)C(F)(F)C(F)(F)I [Perfluoro-1-iodohexane] (max tested concentration (log10 uM): 2),0%,0%,0%,0%,0%,0%,0%,0%,0%
O=S(=O)(O)C(F)(F)C(F)(F)OC(F)(F)C(F)(F)F [Perfluoro-2-ethoxyethanesulfonic acid] (max tested concentration (log10 uM): 2),0%,8.33%,0%,0%,8.33%,0%,0%,0%,16.7%
"O=C(O)C(F)(F)OC(F)(F)C(F)(F)OC(F)(F)C(F)(F)OC(F)(F)F [Perfluoro-3,6,9-trioxadecanoic acid] (max tested concentration (log10 uM): 2)",0%,45%,30%,40%,70%,20%,25%,40%,100%
"O=C(O)C(F)(F)OC(F)(F)C(F)(F)OC(F)(F)C(F)(F)C(F)(F)C(F)(F)F [Perfluoro-3,6-dioxadecanoic acid] (max tested concentration (log10 uM): 2)",0%,56.2%,6.25%,50%,68.8%,0%,31.2%,75%,62.5%
"O=C(O)C(F)(F)OC(F)(F)C(F)(F)OC(F)(F)F [Perfluoro-3,6-dioxaheptanoic acid] (max tested concentration (log10 uM): 2)",0%,4.17%,0%,0%,4.17%,0%,0%,0%,0%
"O=C(O)C(F)(F)OC(F)(F)C(F)(F)OC(F)(F)C(=O)O [Perfluoro-3,6-dioxaoctane-1,8-dioic acid] (max tested concentration (log10 uM): 2)",0%,0%,0%,0%,0%,0%,0%,0%,0%
O=C(O)C(F)(F)C(F)(F)C(F)(F)OC(F)(C(F)(F)F)C(F)(F)F [Perfluoro-4-isopropoxybutanoic acid] (max tested concentration (log10 uM): 2),0%,0%,0%,0%,0%,0%,0%,0%,0%
O=S(=O)(O)C(F)(F)C(F)(F)C(F)(F)C(F)(F)F [Perfluorobutanesulfonic acid] (max tested concentration (log10 uM): 2),0%,0%,0%,0%,0%,0%,0%,0%,0%

# Source: the supplement of paper PMC11281043
